Measured values: US8003649B2 (AstraZeneca AB, priority 2007, dated 2011)

Molecular target: T1, Androgen Receptor (AR) (Homo sapiens, UniProt P10275, T878A)
T1 construct: cell based immuno-fluorescence assay using the LNCaP prostate epithelial cell line; endogenous in cells; host or cells: LNCaP clone FGC (ATCC CRL-1740)
T1 sequence (P10275 1-920 T878A): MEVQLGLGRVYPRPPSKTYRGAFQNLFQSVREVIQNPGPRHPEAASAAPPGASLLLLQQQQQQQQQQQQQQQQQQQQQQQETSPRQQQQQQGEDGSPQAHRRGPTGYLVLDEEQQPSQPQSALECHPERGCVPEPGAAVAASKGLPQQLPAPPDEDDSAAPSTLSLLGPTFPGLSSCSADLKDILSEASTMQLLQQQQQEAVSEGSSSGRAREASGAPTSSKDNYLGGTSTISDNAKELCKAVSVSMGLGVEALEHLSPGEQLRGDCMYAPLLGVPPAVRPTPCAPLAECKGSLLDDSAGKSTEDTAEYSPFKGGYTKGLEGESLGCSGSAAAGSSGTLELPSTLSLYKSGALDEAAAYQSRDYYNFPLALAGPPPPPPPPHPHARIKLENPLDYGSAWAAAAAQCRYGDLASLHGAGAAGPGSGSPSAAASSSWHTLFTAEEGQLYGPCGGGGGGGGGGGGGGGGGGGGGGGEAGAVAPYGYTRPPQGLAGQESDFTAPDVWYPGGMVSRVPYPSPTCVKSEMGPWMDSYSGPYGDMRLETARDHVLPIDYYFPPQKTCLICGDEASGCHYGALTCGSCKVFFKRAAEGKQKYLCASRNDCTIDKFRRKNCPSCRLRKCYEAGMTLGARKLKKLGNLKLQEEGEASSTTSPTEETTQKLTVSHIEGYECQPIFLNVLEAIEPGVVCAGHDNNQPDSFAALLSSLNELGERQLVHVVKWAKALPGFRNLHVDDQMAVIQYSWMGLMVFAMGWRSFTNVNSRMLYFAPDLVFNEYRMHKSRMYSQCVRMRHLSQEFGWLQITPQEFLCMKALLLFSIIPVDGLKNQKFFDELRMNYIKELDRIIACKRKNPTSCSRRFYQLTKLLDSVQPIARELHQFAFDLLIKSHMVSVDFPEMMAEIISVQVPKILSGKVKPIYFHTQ
Assay: LNCaP Androgen Receptor Down-regulation Cell Assay (immunofluorescence end point)
Assay type: cell-based
Conditions: LNCaP prostate carcinoma cells, compound incubation 20-22 hours, 50% reduction of the AR signal; read-out: Androgen Receptor Down-regulation Assay (a) IC50/μM
Method in brief: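 LNCaP cells in medium with 5% charcoal-stripped FBS were plated overnight, then treated with a compound dilution series for 20-22 h at 37° C. After fixation, permeabilisation and immunostaining, AR-associated green fluorescence was quantified by laser-scanning microplate cytometry; AR down-regulation expressed as IC50 from fitted dose-response curves.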

| DC50 [µM] | Structure (SMILES) |
| --- | --- |
| 0.74 | OCCOc1cccc(C2CCN(c3ccc4nnc(C(F)(F)F)n4n3)CC2)c1 [Example 737, 2-[3-[1-[3-(trifluoromethyl)[1,2,4]triazolo[4,3-b]pyridazin-6-yl]piperidin-4-yl]phenoxy]ethanol] |
| 3.3 | O=C(c1ccc(C2CCN(c3ccc4nnc(C(F)(F)F)n4n3)CC2)cc1)N1CC[C@@H](O)C1 [Example 738] |
| 3.2 | O=C(c1ccc(C2CCN(c3ccc4nnc(C(F)(F)F)n4n3)CC2)cc1)N1CC[C@H](O)C1 [Example 739] |
| 2 | O=C(c1ccc(C2CCN(c3ccc4nnc(C(F)(F)F)n4n3)CC2)cc1)N1CCC(O)CC1 [Example 740] |
| 2.2 | CN(CCS(C)(=O)=O)C(=O)c1ccc(C2CCN(c3ccc4nnc(C(F)(F)F)n4n3)CC2)cc1 [Example 741] |
| 9.6 | CN1CCN(C(=O)c2ccc(N3CCN(c4ccc5nnc(C(F)(F)F)n5n4)CC3)cc2)CC1 [Example 744] |
| 3.4 | COCCNC(=O)c1ccc(N2CCN(c3ccc4nnc(C(F)(F)F)n4n3)CC2)cc1 [Example 745] |
| 3.3 | CN(C)C(=O)c1ccc(N2CCN(c3ccc4nnc(C(F)(F)F)n4n3)CC2)cc1 [Example 746] |
| 23 | O=C(c1ccc(N2CCN(c3ccc4nnc(C(F)(F)F)n4n3)CC2)cc1)N1CC[C@@H](O)C1 [Example 747] |
| 5.6 | O=C(c1ccc(N2CCN(c3ccc4nnc(C(F)(F)F)n4n3)CC2)cc1)N1CCCC1 [Example 748] |
| > 22 | O=C(c1ccc(N2CCN(c3ccc4nnc(C(F)(F)F)n4n3)CC2)cc1)N1CCOCC1 [Example 749] |
| 2.6 | O=C(NCCN1CCOCC1)c1ccc(N2CCN(c3ccc4nnc(C(F)(F)F)n4n3)CC2)cc1 [Example 750] |
| 6.3 | COCCN(C)C(=O)c1ccc(N2CCN(c3ccc4nnc(C(F)(F)F)n4n3)CC2)cc1 [Example 751] |
| 2.1 | CN(CCN1CCCC1=O)C(=O)c1ccc(C2CCN(c3ccc4nnc(C(F)(F)F)n4n3)CC2)cc1 [Example 753, N-methyl-N-[2-(2-oxopyrrolidin-1-yl)ethyl]-4-[1-[3-(trifluoromethyl)[1,2,4]triazolo[4,3-b]pyridazin-6-yl]piperidin-4-yl]benzamide] |
| 2.5 | CN(CCN1CCOCC1)C(=O)c1ccc(C2CCN(c3ccc4nnc(C(F)(F)F)n4n3)CC2)cc1 [Example 754, N-methyl-N-(2-morpholin-4-ylethyl)-4-[1-[3-(trifluoromethyl)[1,2,4]triazolo[4,3-b]pyridazin-6-yl]piperidin-4-yl]benzamide] |
| 2.2 | FC(F)(F)c1nnc2ccc(N3CCN(c4ccc(OCCN5CCCC5)cc4)CC3)nn12 [Example 755] |
| > 12 | FC(F)(F)c1nnc2ccc(N3CCN(c4ccc(OCc5ccon5)cc4)CC3)nn12 [Example 757] |
| 3.9 | Fc1cc(Cl)cc(CN2CCN(c3ccc4nnc(C(F)(F)F)n4n3)CC2)c1 [Example 759] |
| > 3.1 | Fc1cc(CN2CCN(c3ccc4nnc(C(F)(F)F)n4n3)CC2)cc(C(F)(F)F)c1 [Example 760] |
| 1.5 | Fc1cccc(CN2CCN(c3ccc4nnc(C(F)(F)F)n4n3)CC2)c1C(F)(F)F [Example 761] |
| > 9.8 | Fc1cc(F)c(F)c(CN2CCN(c3ccc4nnc(C(F)(F)F)n4n3)CC2)c1 [Example 763] |
| 2.5 | Fc1ccc(F)c(CN2CCN(c3ccc4nnc(C(F)(F)F)n4n3)CC2)c1F [Example 764] |
| 8.8 | CS(=O)(=O)c1ccc(F)cc1CN1CCN(c2ccc3nnc(C(F)(F)F)n3n2)CC1 [Example 765] |
| > 17 | Fc1ccc(CN2CCN(c3ccc4nnc(C(F)(F)F)n4n3)CC2)c(F)c1F [Example 766] |
| > 12 | Fc1cc(CN2CCN(c3ccc4nnc(C(F)(F)F)n4n3)CC2)cc(F)c1F [Example 767] |
| 4.7 | Fc1cccc(CN2CCN(c3ccc4nnc(C(F)(F)F)n4n3)CC2)c1Cl [Example 768] |
| 6.3 | FC(F)(F)c1nnc2ccc(N3CCN(Cc4cncc(Cl)c4)CC3)nn12 [Example 770] |
| 8 | FC(F)(F)c1nnc2ccc(N3CCN(Cc4cncc(Br)c4)CC3)nn12 [Example 774] |
